Reference: PubChem BioAssay AID248 (DTP/NCI, 2004)
Several values for one entry are separate records, joined by “and”; a condition that tells them apart may be missing. Equal entries are not always repeated. Inconclusive results and toxic doses are left out. Cut-off read from the data, not from the text of the source: active = T/C of 150% or more; inactive = T/C below 125%.

Tested on: L1210 leukemia ip in BDF1 mice, survival T/C
Assay: NCI In Vivo Anticancer Drug Screen. Data for tumor model L1210 Leukemia (intraperitoneal) in B6D2F1 (BDF1) mice
Settings: endpoint: mean survival time, higher = longer survival
Procedure, shortened: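 Survival endpoint. Drug-treated group vs vehicle group, expressed as T divided by C. Tumor passaged by transplantation.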

[1] = dose: 100.0 mg/kg/injection, schedule: Q01DX001 (ip), vehicle: saline with Tween-80
[2] = dose: 100.0 mg/kg/injection, schedule: Q01DX009 (ip), vehicle: saline with Tween-80
[3] = dose: 200.0 mg/kg/injection, schedule: Q01DX001 (ip), vehicle: saline with Tween-80
[4] = dose: 200.0 mg/kg/injection, schedule: Q01DX009 (ip), vehicle: saline with Tween-80
[5] = dose: 200.0 mg/kg/injection, schedule: Q04DX003 (ip), vehicle: saline with Tween-80
[6] = dose: 400.0 mg/kg/injection, schedule: Q01DX001 (ip), vehicle: saline with Tween-80
[7] = dose: 400.0 mg/kg/injection, schedule: Q01DX009 (ip), vehicle: saline with Tween-80
[8] = dose: 400.0 mg/kg/injection, schedule: Q04DX003 (ip), vehicle: saline with Tween-80
[9] = dose: 100.0 mg/kg/injection, schedule: Q04DX003 (ip), vehicle: saline with Tween-80

Measured: T/C

CCOC(=O)c1ccc(NC(=O)Nc2ccccc2OC)cc1
inactive: [1] 89 % of control | [2] 92 % of control | dose: 100.0 mg/kg/injection, schedule: Q04DX002 (ip), vehicle: saline with Tween-80 94 % of control and 87 % of control | [3] 92 % of control | [4] 95 % of control | dose: 200.0 mg/kg/injection, schedule: Q04DX002 (ip), vehicle: saline with Tween-80 87 % of control and 91 % of control | [5] 87 % of control | [6] 86 % of control | [7] 87 % of control | dose: 400.0 mg/kg/injection, schedule: Q04DX002 (ip), vehicle: saline with Tween-80 87 % of control | [8] 92 % of control

NC(=O)N/C=C1\CCCOC1=O
inactive: dose: 50.0 mg/kg/injection, schedule: Q01DX009 (ip), vehicle: saline with Tween-80 98 % of control | [2] 93 % of control and 91 % of control | [9] 96 % of control | [4] 98 % of control and 109 % of control | [5] 104 % of control | [7] 109 % of control

[Cl][Pt+2][Cl].[NH-]c1ccc([N+](=O)[O-])cc1.[NH-]c1ccc([N+](=O)[O-])cc1
inactive: dose: 100.0 mg/kg/injection, schedule: Q04DX003 (ip), vehicle: saline 102 % of control | dose: 200.0 mg/kg/injection, schedule: Q04DX003 (ip), vehicle: saline 113 % of control

O=c1[nH]c(=O)c2cccnc2[nH]1
inactive: dose: 3.12 mg/kg/injection, schedule: Q01DX009 (ip), vehicle: saline 109 % of control | dose: 6.25 mg/kg/injection, schedule: Q01DX009 (ip), vehicle: saline 107 % of control | dose: 12.5 mg/kg/injection, schedule: Q01DX009 (ip), vehicle: saline 115 % of control | dose: 25.0 mg/kg/injection, schedule: Q01DX001 (ip), vehicle: saline 100 % of control | dose: 25.0 mg/kg/injection, schedule: Q01DX009 (ip), vehicle: saline 108 % of control | dose: 50.0 mg/kg/injection, schedule: Q01DX001 (ip), vehicle: saline 105 % of control | dose: 50.0 mg/kg/injection, schedule: Q01DX009 (ip), vehicle: saline 100 % of control | dose: 100.0 mg/kg/injection, schedule: Q01DX001 (ip), vehicle: saline 98 % of control and 100 % of control | dose: 100.0 mg/kg/injection, schedule: Q01DX009 (ip), vehicle: saline 94 % of control | dose: 200.0 mg/kg/injection, schedule: Q01DX001 (ip), vehicle: saline 98 % of control and 100 % of control

CCCCCCCCCCCCCCCCCCOS(=O)(=O)c1ccc(C)cc1
inactive: dose: 12.5 mg/kg/injection, schedule: Q01DX009 (ip), vehicle: Klucel (hydroxypropylcellulose) (HPC) 98 % of control | dose: 25.0 mg/kg/injection, schedule: Q01DX009 (ip), vehicle: Klucel (hydroxypropylcellulose) (HPC) 95 % of control | dose: 50.0 mg/kg/injection, schedule: Q01DX009 (ip), vehicle: Klucel (hydroxypropylcellulose) (HPC) 95 % of control

Cc1ccc(S(=O)(=O)OCC(C)(C)NC(=O)c2ccc([N+](=O)[O-])cc2)cc1
inactive: [1] 91 % of control | [3] 105 % of control | [6] 91 % of control

O=P(Oc1ccc(OP(=O)(N2CC2)N2CC2)cc1)(N1CC1)N1CC1
active: dose: 54.0 mg/kg/injection, schedule: Q01DX009 (ip), vehicle: saline 186 % of control | dose: 90.0 mg/kg/injection, schedule: Q01DX009 (ip), vehicle: saline 166 % of control | dose: 300.0 mg/kg/injection, schedule: Q01DX001 (ip), vehicle: saline 153 % of control
inactive: dose: 9.0 mg/kg/injection, schedule: Q01DX009 (ip), vehicle: saline 96 % of control | dose: 9.5 mg/kg/injection, schedule: Q01DX001 (ip), vehicle: saline 98 % of control | dose: 13.0 mg/kg/injection, schedule: Q01DX009 (ip), vehicle: saline 110 % of control | dose: 19.0 mg/kg/injection, schedule: Q01DX001 (ip), vehicle: saline 110 % of control | dose: 20.0 mg/kg/injection, schedule: Q01DX009 (ip), vehicle: saline 104 % of control | dose: 22.0 mg/kg/injection, schedule: Q01DX Z (ip), vehicle: other 103 % of control | dose: 32.0 mg/kg/injection, schedule: Q01DX009 (ip), vehicle: saline 100 % of control | dose: 33.0 mg/kg/injection, schedule: Q01DX Z (ip), vehicle: other 104 % of control | dose: 38.0 mg/kg/injection, schedule: Q01DX001 (ip), vehicle: saline 102 % of control | dose: 50.0 mg/kg/injection, schedule: Q01DX Z (ip), vehicle: other 114 % of control | dose: 75.0 mg/kg/injection, schedule: Q01DX Z (ip), vehicle: other 123 % of control | dose: 150.0 mg/kg/injection, schedule: Q01DX009 (ip), vehicle: saline 101 % of control

Cc1cc(Cl)ccc1OC(=O)COc1cc(Cl)c(Cl)cc1Cl
inactive: dose: 1.56 mg/kg/injection, schedule: Q04DX002 (ip), vehicle: Klucel (hydroxypropylcellulose) (HPC) 108 % of control | dose: 3.13 mg/kg/injection, schedule: Q04DX002 (ip), vehicle: Klucel (hydroxypropylcellulose) (HPC) 108 % of control | dose: 6.25 mg/kg/injection, schedule: Q04DX002 (ip), vehicle: Klucel (hydroxypropylcellulose) (HPC) 105 % of control | dose: 12.5 mg/kg/injection, schedule: Q04DX002 (ip), vehicle: Klucel (hydroxypropylcellulose) (HPC) 95 % of control | dose: 25.0 mg/kg/injection, schedule: Q04DX002 (ip), vehicle: Klucel (hydroxypropylcellulose) (HPC) 100 % of control | dose: 50.0 mg/kg/injection, schedule: Q04DX002 (ip), vehicle: Klucel (hydroxypropylcellulose) (HPC) 100 % of control

Cn1c(/N=C/c2ccc([N+](=O)[O-])cc2)c(N)c(=O)n(C)c1=O
inactive: dose: 50.0 mg/kg/injection, schedule: Q01DX001 (ip), vehicle: carboxymethylcellulose (CMC) 90 % of control | dose: 100.0 mg/kg/injection, schedule: Q01DX001 (ip), vehicle: carboxymethylcellulose (CMC) 93 % of control | dose: 200.0 mg/kg/injection, schedule: Q01DX001 (ip), vehicle: carboxymethylcellulose (CMC) 88 % of control | dose: 400.0 mg/kg/injection, schedule: Q01DX001 (ip), vehicle: carboxymethylcellulose (CMC) 88 % of control

O=C(Nc1cccc(C2=NCCN2)c1)c1ccc(-c2ccc(C(=O)Nc3cccc(C4=NCCN4)c3)cc2)cc1
inactive: dose: 50.0 mg/kg/injection, schedule: Q01DX Z (ip), vehicle: carboxymethylcellulose (CMC) 101 % of control | dose: 65.0 mg/kg/injection, schedule: Q01DX Z (ip), vehicle: methylcellulose (MC) 121 % of control | dose: 100.0 mg/kg/injection, schedule: Q01DX Z (ip), vehicle: carboxymethylcellulose (CMC) 120 % of control | dose: 100.0 mg/kg/injection, schedule: Q01DX Z (ip), vehicle: methylcellulose (MC) 113 % of control | dose: 400.0 mg/kg/injection, schedule: Q01DX Z (ip), vehicle: carboxymethylcellulose (CMC) 117 % of control

COc1ccc(-n2cccc2/C=N/O)cc1
inactive: dose: 100.0 mg/kg/injection, schedule: Q04DX002 (ip), vehicle: Klucel (hydroxypropylcellulose) (HPC) 96 % of control | dose: 200.0 mg/kg/injection, schedule: Q04DX002 (ip), vehicle: Klucel (hydroxypropylcellulose) (HPC) 100 % of control | dose: 400.0 mg/kg/injection, schedule: Q04DX002 (ip), vehicle: Klucel (hydroxypropylcellulose) (HPC) 86 % of control

O=[N+]([O-])c1cc(S(=O)(=O)O)ccc1Cl
inactive: dose: 100.0 mg/kg/injection, schedule: Q04DX003 (ip), vehicle: carboxymethylcellulose (CMC) 100 % of control | [9] 98 % of control | dose: 200.0 mg/kg/injection, schedule: Q04DX003 (ip), vehicle: carboxymethylcellulose (CMC) 101 % of control | [5] 102 % of control | dose: 400.0 mg/kg/injection, schedule: Q04DX003 (ip), vehicle: carboxymethylcellulose (CMC) 97 % of control | [8] 101 % of control

N#Cc1ccc(OCCCOc2ccc([N+](=O)[O-])cc2)cc1
inactive: dose: 100.0 mg/kg/injection, schedule: Q04DX003 (ip), vehicle: Klucel (hydroxypropylcellulose) (HPC) 106 % of control | dose: 200.0 mg/kg/injection, schedule: Q04DX003 (ip), vehicle: Klucel (hydroxypropylcellulose) (HPC) 100 % of control | dose: 400.0 mg/kg/injection, schedule: Q04DX003 (ip), vehicle: Klucel (hydroxypropylcellulose) (HPC) 103 % of control
